# According to article PMC7911889 (Viruses, 2021):
# Like-named read-outs stand apart in the source and are kept apart here. Non-standard residues stand in square brackets, D forms with d. Residues, ends and D or L forms follow the SMILES beside them. *: point of attachment. Nva = CCC[C@H](N)C(=O)O; Cbz = O=C(OCc1ccccc1)*
# Assays:
# in vitro = conditions: human
# cell culture = conditions: cited from earlier work
# [1] = tested on: 293T human embryonic kidney cells
# SARS-CoV-2 = tested on: SARS-CoV-2; parameters: method as in per compound as in References column of Table 1; conditions: read-out: Reported EC50 for inhibition of SARS-CoV-2 replication in cell culture; cited from earlier work
# [2] = read-out: CC50, CellTiter-Glo 2.0 assay, transfected 293T cells, 30 h post-transfection
# [3] = transfected 293T cells (human embryonic kidney)
compound,measurement,setting,value
CC(C)CN(C[C@@H](O)[C@H](Cc1ccccc1)NC(=O)O[C@H]1CCOC1)S(=O)(=O)c1ccc(N)cc1 [Amprenavir],CC50 at 30 h post-transfection,in vitro,> 100 µM
C=C[C@@H]1C[C@]1(NC(=O)[C@@H]1C[C@@H](Oc2ncc(OC)c3ccc(Cl)cc23)CN1C(=O)[C@@H](NC(=O)OC(C)(C)C)C(C)(C)C)C(=O)NS(=O)(=O)C1CC1 [Asunaprevir],CC50,in vitro,31.5 µM
COC(=O)N[C@H](C(=O)N[C@@H](Cc1ccccc1)[C@@H](O)CN(Cc1ccc(-c2ccccn2)cc1)NC(=O)[C@@H](NC(=O)OC)C(C)(C)C)C(C)(C)C [Atazanavir],CC50 at 30 h post-transfection,in vitro,> 100 µM
O=c1cc(-c2ccccc2)oc2cc(O)c(O)c(O)c12 [Baicalein],CC50,in vitro,> 100 µM
CC(C)(C)NC(=O)N[C@H](C(=O)N1C[C@H]2[C@@H]([C@H]1C(=O)NC(CC1CCC1)C(=O)C(N)=O)C2(C)C)C(C)(C)C (stereo partly drawn) [Boceprevir],Reported CC50 (corresponding to reported EC50),cell culture,>100–>200
same,CC50 at 30 h post-transfection,in vitro,> 100 µM
CSCC[C@@H](C=O)NC(=O)[C@H](CC(C)C)NC(=O)[C@H](CC(C)C)NC(C)=O [Calpain Inhibitor II] (Ac-Leu-Leu-Met-aldehyde),Reported CC50 (corresponding to reported EC50),cell culture,>100 µM
same,CC50,[1],> 100 µM
CCCC(NC(=O)C(CC(C)C)NC(=O)OCc1ccccc1)C(=O)C(=O)NCc1ccccn1 (stereo not drawn) [Calpain Inhibitor XII],Reported CC50 (corresponding to reported EC50),cell culture,>100 µM
same,CC50,[1],> 100 µM
O=C1C(Cl)=C(NCCN2CCOCC2)C(=O)c2ncccc21 [DA-3003-1],Reported CC50 (corresponding to reported EC50),cell culture,7.7 µM
same,CC50,[1]; [2],7.7 µM
CC(C)CN(C[C@@H](O)[C@H](Cc1ccccc1)NC(=O)O[C@H]1CO[C@H]2OCC[C@H]21)S(=O)(=O)c1ccc(N)cc1 [Darunavir],EC50,SARS-CoV-2,46.4 µM
O=c1c2ccccc2[se]n1-c1ccccc1 [Ebselen],CC50,in vitro,8 µM
CC(C)C[C@H](NC(=O)OCc1ccccc1)C(=O)N[C@@H](CC1CCNC1=O)C(O)S(=O)(=O)O (stereo partly drawn) [GC376],CC50,[1],> 100 µM
same,EC50,SARS-CoV-2,0.2 to 4.5 µM
CC(C)C[C@H](NC(=O)OCc1ccccc1)C(=O)N[C@@H](C[C@@H]1CCNC1=O)C(O)S(=O)(=O)[O-].[Na+] (stereo partly drawn) [GC376],Reported CC50 (corresponding to reported EC50),cell culture,>100–>200
same,Effect on cell viability (in words),[1],no significant effect on cell viability up to 100 µM
C=C[C@@H]1C[C@]1(NC(=O)[C@@H]1C[C@@H]2CN1C(=O)[C@H](C(C)(C)C)NC(=O)O[C@@H]1C[C@H]1CCCCCc1nc3ccc(OC)cc3nc1O2)C(=O)NS(=O)(=O)C1CC1 [Grazoprevir],CC50,[1],57.4 µM
CC(C)(C)NC(=O)[C@@H]1CN(Cc2cccnc2)CCN1C[C@@H](O)C[C@@H](Cc1ccccc1)C(=O)N[C@H]1c2ccccc2C[C@H]1O [Indinavir],CC50,in vitro,> 100 µM
Cc1cccc(C)c1OCC(=O)N[C@@H](Cc1ccccc1)[C@@H](O)C[C@H](Cc1ccccc1)NC(=O)[C@H](C(C)C)N1CCCNC1=O [Lopinavir],CC50,in vitro,29.1 µM
O=C(Oc1cncc(Cl)c1)c1cccs1 [MAC 5576],Reported CC50 (corresponding to reported EC50),cell culture,>100 µM
same,CC50,[1],> 100 µM
CCC[C@@H](C=O)NC(=O)[C@H](CC(C)C)NC(=O)[C@H](CC(C)C)NC(=O)OCc1ccccc1 [MG-115] (Cbz-Leu-Leu-[Nva]-aldehyde),Reported CC50 (corresponding to reported EC50),cell culture,1.1 µM
same,CC50,[1]; [2],11 µM
COc1ccc2cc(-c3cc(-c4cc(Cl)cc(Cl)c4)nn3[C@@H](C)c3ccc(C(=O)NCCC(=O)O)cc3)ccc2c1 [MK 0893],Reported CC50 (corresponding to reported EC50),cell culture,12.6 µM
same,CC50,in vitro,42.3 µM
same,EC50,SARS-CoV-2,3.2 µM
Cc1ccc(NC(=O)c2ccc(CN3CCN(C)CC3)cc2)cc1Nc1nc(-c2cccnc2)cs1 [Masitinib],CC50 at 30 h post-transfection,in vitro; [3],3 µM
Cc1c(O)cccc1C(=O)N[C@@H](CSc1ccccc1)[C@H](O)CN1C[C@H]2CCCC[C@H]2C[C@H]1C(=O)NC(C)(C)C [Nelfinavir],CC50,in vitro,11.2 µM
CCN(CC)CCCC(C)Nc1c2ccc(Cl)cc2nc2ccc(OC)cc12 (stereo not drawn) [Quinacrine],CC50,in vitro,2.5 µM
CC(C)(C)NC(=O)[C@@H]1C[C@@H]2CCCC[C@@H]2CN1C[C@@H](O)[C@H](Cc1ccccc1)NC(=O)[C@H](CC(N)=O)NC(=O)c1ccc2ccccc2n1 [Saquinavir],CC50,in vitro,27.3 µM
COc1ccc2c(O[C@@H]3C[C@H]4C(=O)N[C@]5(C(=O)NS(=O)(=O)C6CC6)C[C@H]5/C=C\CCCCN(C)C(=O)[C@@H]4C3)cc(-c3nc(C(C)C)cs3)nc2c1C [Simeprevir],CC50 at 30 h post-transfection,in vitro,19.6 µM
Cc1ccc(C(=O)Nc2ccc(S(=O)(=O)O)c3cc(S(=O)(=O)O)cc(S(=O)(=O)O)c23)cc1NC(=O)c1cccc(NC(=O)Nc2cccc(C(=O)Nc3cc(C(=O)Nc4ccc(S(=O)(=O)O)c5cc(S(=O)(=O)O)cc(S(=O)(=O)O)c45)ccc3C)c2)c1 [Suramin],Reported CC50 (corresponding to reported EC50),cell culture,>20–>5000
same,CC50,in vitro,> 100 µM
same,EC50,SARS-CoV-2,20 µM
Brc1c(Br)c(Br)c2n[nH]nc2c1Br [TBB],Reported CC50 (corresponding to reported EC50),cell culture,8.9 µM
COc1cc(C)c2c(Oc3cccc(C(F)(F)F)c3)c(OC)cc(NC(C)CCCN)c2n1 (stereo not drawn) [Tafenoquine],Reported CC50 (corresponding to reported EC50),cell culture,37.2 µM
same,CC50 at 30 h post-transfection,in vitro,2 µM
CCC[C@H](NC(=O)[C@@H]1[C@H]2CCC[C@H]2CN1C(=O)[C@@H](NC(=O)[C@@H](NC(=O)c1cnccn1)C1CCCCC1)C(C)(C)C)C(=O)C(=O)NC1CC1 [Telaprevir],CC50 at 30 h post-transfection,in vitro; [3],71.5 µM
CCC[C@@]1(CCc2ccccc2)CC(O)=C([C@H](CC)c2cccc(NS(=O)(=O)c3ccc(C(F)(F)F)cn3)c2)C(=O)O1 [Tipranavir],CC50 at 30 h post-transfection,in vitro,85.1 µM
Cn1nc(-c2ccc(C(F)(F)F)cc2)nc2c(=O)n(C)c(=O)nc1-2 [Walrycin B],Reported CC50 (corresponding to reported EC50),cell culture,4.3 µM
same,CC50,[1],29 µM
CC(NC(=O)[C@H](Cc1ccccc1)NC(=O)OCc1ccccc1)C(=O)CF (stereo partly drawn) [Z-FA-FMK],Reported CC50 (corresponding to reported EC50),cell culture,>20 µM
same,CC50,[1]; [2],> 100 µM
COc1cccc2c1C(=O)c1c(O)c3c(c(O)c1C2=O)C[C@@](O)(C(=O)CO)C[C@@H]3O[C@H]1C[C@H](N)[C@H](O)[C@H](C)O1 [doxorubicin],CC50 at 30 h post-transfection,in vitro; [3],3.7 µM
O.O=C(OC[C@H]1O[C@@H](OC(=O)c2cc(O)c(O)c(O)c2)[C@H](OC(=O)c2cc(O)c(O)c(O)c2)[C@@H](OC(=O)c2cc(O)c(O)c(O)c2)[C@@H]1OC(=O)c1cc(O)c(O)c(O)c1)c1cc(O)c(O)c(O)c1 [penta-O-galloyl-beta-D-glucose hydrate],Reported CC50 (corresponding to reported EC50),cell culture,11.2 µM
same,CC50,[1],30.4 µM
GRL-0496,Reported CC50 (corresponding to reported EC50),cell culture,81.0 µM
same,CC50,[1],53.2 µM
same,EC50,SARS-CoV-2,9.1 µM
